The results in this text go back to patent publication US9127001B2, “Substituted 4,5,6,7-tetrahydro-1H-pyrazolo[4,3-c]pyridines, their use as medicament, and pharmaceutical preparations comprising them” (Sanofi, priority 2011, dated 2015).

Each structure is given as a SMILES string.

For this assay, the target named is Human TASK-1 channels (Homo sapiens (Human), UniProt O14649). Put plainly: Activity on the TASK-1 channel in Xenopus oocytes (two-microelectrode voltage clamp). It counts as cell-based. As to conditions: for IC50: human TASK-1 expressed in Xenopus oocytes, currents during pulses to 40 mV, room temperature. As to the method:
Human TASK-1 channels were expressed in Xenopus oocytes. For this purpose, oocytes were isolated from Xenopus laevis and defoliculated. Subsequently, TASK-1-encoding RNA synthesized in vitro was injected into oocytes. […] Data were acquired and analyzed using a TEC-10cx amplifier (NPI Electronic, Tamm, Germany) connected to an ITC-16 interface (Instrutech Corp., Long Island, USA) and Pulse software (HEKA Elektronik, Lambrecht, Germany). […] Oocytes were continuously superfused with ND96 buffer containing: NaCl 96 mM, KCl 2 mM, CaCl2 1.8 mM, MgCl2 1 mM, HEPES 5 mM (pH adjusted to 7.4 with NaOH). All experiments were performed at room temperature.
Test substances were consecutively added to the bath solution at rising concentrations. […] IC50 values were obtained by fitting the data to the general dose-response equation.

Human TASK-1 channels, sequence (O14649 whole entry, the tested form may be a part): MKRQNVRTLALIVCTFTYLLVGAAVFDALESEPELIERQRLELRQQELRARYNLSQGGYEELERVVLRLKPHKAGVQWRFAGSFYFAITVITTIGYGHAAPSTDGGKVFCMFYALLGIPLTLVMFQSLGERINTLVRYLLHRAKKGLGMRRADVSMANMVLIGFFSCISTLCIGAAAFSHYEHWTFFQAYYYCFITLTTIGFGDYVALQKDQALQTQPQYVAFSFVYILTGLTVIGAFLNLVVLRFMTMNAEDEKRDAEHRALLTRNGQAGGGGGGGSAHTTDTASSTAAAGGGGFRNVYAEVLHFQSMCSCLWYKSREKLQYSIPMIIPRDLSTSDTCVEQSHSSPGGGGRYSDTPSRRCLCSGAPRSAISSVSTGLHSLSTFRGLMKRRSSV

`CC(c1ccc(F)cc1)n1nc(-c2ccc(F)cc2)c2c1CCN(C(=O)NC(C)(C)C)C2` (single isomer, unassigned) [Example 11f, 3-(4-Fluoro-phenyl)-1-[1-(4-fluoro-phenyl)-ethyl]-1,4,6,7-tetrahydro-pyrazolo[4,3-c]pyridine-5-carboxylic acid tert-butylamide] had an inhibition at 5 µM of 58%.

`CC(c1ccc(F)cc1)n1nc(-c2ccc(F)cc2)c2c1CCN(C(=O)N1CCOCC1)C2` (single isomer, unassigned) [Example 12b, {3-(4-Fluoro-phenyl)-1-[1-(4-fluoro-phenyl)-ethyl]-1,4,6,7-tetrahydro-pyr-azolo[4,3-c]pyridin-5-yl}-morpholin-4-yl-methanone] showed a 50% inhibitory concentration (IC50) of 511 nM.

For `CC(c1ccc(F)cc1)n1nc(-c2ccc(F)cc2)c2c1CCN(C(=O)N1CC[C@H](O)C1)C2` (single isomer, unassigned) [Example 12c], the IC50 is 734 nM. This IC50 and that of the compound before are within 1.5-fold of each other.

`CC(=O)N1CCc2c(c(-c3ccc(F)cc3)nn2C(C)c2ccc(F)cc2)C1` (single isomer, unassigned; (+)) [Example 6be, (+)-1-{3-(4-Fluoro-phenyl)-1-[1-(4-fluoro-phenyl)-ethyl]-1,4,6,7-tetrahydro-pyrazolo[4,3-c]pyridin-5-yl}-ethanone] yielded an IC50 of 500 nM.

The compound `CC(=O)N1CCc2c(c(-c3ccc(F)cc3)nn2C(C)c2ccc(F)cc2)C1` (single isomer, unassigned; (-)) [Example 6bf, (−)-1-{3-(4-Fluoro-phenyl)-1-[1-(4-fluoro-phenyl)-ethyl]-1,4,6,7-tetrahydro-pyrazolo[4,3-c]pyridin-5-yl}-ethanone] had a half-inhibitory concentration (IC50) of 500 nM.

Compound `CC(=O)N1CCc2c(c(-c3ncccc3C)nn2Cc2ccc(F)cc2F)C1` [Example 6ab, 1-[1-(2,4-Difluoro-benzyl)-3-(3-methyl-pyridin-2-yl)-1,4,6,7-tetrahydro-pyrazolo[4,3-c]pyridin-5-yl]-ethanone] had an inhibition at 5 µM of 76%.

`COc1ccnc(-c2nn(Cc3ccc(F)cc3F)c3c2CN(C(C)=O)CC3)c1` [Example 6ac, 1-[1-(2,4-Difluoro-benzyl)-3-(4-methoxy-pyridin-2-yl)-1,4,6,7-tetrahydro-pyrazolo[4,3-c]pyridin-5-yl]-ethanone]: at 5 µM the inhibition was 80%.

On to `CC(=O)N1CCc2c(c(-c3cccc(C(F)(F)F)c3)nn2Cc2csc(C)n2)C1` [Example 6ad, 1-[1-(2-Methyl-thiazol-4-ylmethyl)-3-(3-trifluoromethyl-phenyl)-1,4,6,7-tetrahydro-pyrazolo[4,3-c]pyridin-5-yl]-ethanone], for which the inhibition at 5 µM stood at 86%.

Consider `CC(=O)N1CCc2c(c(-c3cccc(C(F)(F)F)c3)nn2Cc2nccs2)C1` [Example 6ae, 1-[1-Thiazol-2-ylmethyl-3-(3-trifluoromethyl-phenyl)-1,4,6,7-tetrahydro-pyrazolo[4,3-c]pyridin-5-yl]-ethanone], for which testing at 5 µM gave an inhibition of 84%.

`CC(=O)N1CCc2c(c(-c3cccs3)nn2Cc2ccc(F)cc2F)C1` [Example 6af, 1-[1-(2,4-Difluoro-benzyl)-3-thiophen-2-yl-1,4,6,7-tetrahydro-pyrazolo[4,3-c]pyridin-5-yl]-ethanone] registered an inhibition at 5 µM of 72%.

On to `CC(=O)N1CCc2c(c(-c3cccc(C)c3)nn2Cc2ccc(Cl)s2)C1` [Example 6ag, 1-[1-(5-Chloro-thiophen-2-ylmethyl)-3-m-tolyl-1,4,6,7-tetrahydro-pyrazolo[4,3-c]pyridin-5-yl]-ethanone], for which at 5 µM the inhibition was 75%.

`CC(=O)N1CCc2c(c(-c3cccc(C(F)(F)F)c3)nn2Cc2ccc(Cl)s2)C1` [Example 6ah, 1-[1-(5-Chloro-thiophen-2-ylmethyl)-3-(3-trifluoromethyl-phenyl)-1,4,6,7-tetrahydro-pyrazolo[4,3-c]pyridin-5-yl]-ethanone] showed an inhibition at 5 µM of 53%.

`CC(=O)N1CCc2c(c(-c3cccc(C#N)c3)nn2Cc2ccc(Cl)s2)C1` [Example 6ai, 3-[5-Acetyl-1-(5-chloro-thiophen-2-ylmethyl)-4,5,6,7-tetrahydro-1H-pyrazolo[4,3-c]pyridin-3-yl]-benzonitrile] gave an inhibition at 5 µM of 79%.

As to `CC(=O)N1CCc2c(c(-c3cccc(Cl)c3)nn2Cc2ccc(Cl)s2)C1` [Example 6aj, 1-[3-(3-Chloro-phenyl)-1-(5-chloro-thiophen-2-ylmethyl)-1,4,6,7-tetrahydro-pyrazolo[4,3-c]pyridin-5-yl]-ethanone], testing at 5 µM gave an inhibition of 76%.

Compound `CC(=O)N1CCc2c(c(-c3ccc(Cl)s3)nn2Cc2ccc(F)cc2F)C1` [Example 6ak, 1-[3-(5-Chloro-thiophen-2-yl)-1-(2,4-difluoro-benzyl)-1,4,6,7-tetrahydro-pyrazolo[4,3-c]pyridin-5-yl]-ethanone] had an IC50 of 270 nM.

Take `CC(=O)N1CCc2c(c(-c3ccsc3)nn2Cc2ccc(F)cc2F)C1` [Example 6al, 1-[1-(2,4-Difluoro-benzyl)-3-thiophen-3-yl-1,4,6,7-tetrahydro-pyrazolo[4,3-c]pyridin-5-yl]-ethanone]: the inhibition at 5 µM stood at 75%.

In turn, `CC(=O)N1CCc2c(c(-c3cccc(C(F)(F)F)c3)nn2Cc2ccc(C#N)cc2)C1` [Example 6am, 4-[5-Acetyl-3-(3-trifluoromethyl-phenyl)-4,5,6,7-tetrahydro-pyrazolo[4,3-c]pyridin-1-ylmethyl]-benzonitrile] yielded an IC50 of 114 nM.

Regarding `CC(=O)N1CCc2c(c(-c3cccc(C#N)c3)nn2C(C)c2ccc(F)cc2)C1` (stereo not shown) [Example 6an, 3-{5-Acetyl-1-[1-(4-fluoro-phenyl)-ethyl]-4,5,6,7-tetrahydro-1H-pyrazolo[4,3-c]pyridin-3-yl}-benzonitrile], the IC50 was found to be 187 nM.

As for `CC(=O)N1CCc2c(c(-c3ccc(F)cc3)nn2C(c2ccc(F)cc2)C2CC2)C1` (stereo not shown) [Example 6ao, 1-[1-[Cyclopropyl-(4-fluoro-phenyl)-methyl]-3-(4-fluoro-phenyl)-1,4,6,7-tetrahydro-pyrazolo[4,3-c]pyridin-5-yl]-ethanone], the IC50 came to 258 nM.

`CC(=O)N1CCc2c(c(-c3cccc(OC(F)(F)F)c3)nn2Cc2ccc(F)cc2F)C1` [Example 6ap, 1-[1-(2,4-Difluoro-benzyl)-3-(3-trifluoromethoxy-phenyl)-1,4,6,7-tetrahydro-pyrazolo[4,3-c]pyridin-5-yl]-ethanone] showed a 50% inhibitory concentration (IC50) of 285 nM.

`CC(=O)N1CCc2c(c(-c3ccc(F)cc3)nn2Cc2c(F)cccc2F)C1` [Example 6aq, 1-[1-(2,6-Difluoro-benzyl)-3-(4-fluoro-phenyl)-1,4,6,7-tetrahydro-pyrazolo[4,3-c]pyridin-5-yl]-ethanone] gave an IC50 of 359 nM.

`CC(=O)N1CCc2c(c(-c3ccc(F)cc3)nn2C(C)c2ccc(F)cc2)C1` (stereo not shown) [Example 6ar, 1-{3-(4-Fluoro-phenyl)-1-[1-(4-fluoro-phenyl)-ethyl]-1,4,6,7-tetrahydro-pyrazolo[4,3-c]pyridin-5-yl}-ethanone] returned an IC50 of 552 nM.

Compound `CC(=O)N1CCc2c(c(-c3ccc(F)cc3)nn2Cc2ccc(C(F)(F)F)cc2)C1` [Example 6as, 1-[3-(4-Fluoro-phenyl)-1-(4-trifluoromethyl-benzyl)-1,4,6,7-tetrahydro-pyrazolo[4,3-c]pyridin-5-yl]-ethanone] registered an IC50 of 659 nM.

`COc1cccc(-c2nn(Cc3ccc(F)cc3F)c3c2CN(C(C)=O)CC3)c1` [Example 6at, 1-[1-(2,4-Difluoro-benzyl)-3-(3-methoxy-phenyl)-1,4,6,7-tetrahydro-pyrazolo[4,3-c]pyridin-5-yl]-ethanone]: the IC50 amounted to 720 nM.

Compound `CC(=O)N1CCc2c(c(-c3ccc(F)cc3)nn2Cc2cccc(C(F)(F)F)c2)C1` [Example 6av, 1-[3-(4-Fluoro-phenyl)-1-(3-trifluoromethyl-benzyl)-1,4,6,7-tetrahydro-pyrazolo[4,3-c]pyridin-5-yl]-ethanone] displayed an IC50 of 911 nM.

`CC(=O)N1CCc2c(c(-c3cccc(OC(F)(F)F)c3)nn2C(C)c2ccc(F)cc2)C1` (stereo not shown) [Example 6aw, 1-[1-[1-(4-Fluoro-phenyl)-ethyl]-3-(3-trifluoromethoxy-phenyl)-1,4,6,7-tetrahydro-pyrazolo[4,3-c]pyridin-5-yl]-ethanone] returned an IC50 of 947 nM.

Turning to `COc1cc(-c2nn(Cc3ccc(F)cc3F)c3c2CN(C(C)=O)CC3)ccc1F` [Example 6ax, 1-[1-(2,4-Difluoro-benzyl)-3-(4-fluoro-3-methoxy-phenyl)-1,4,6,7-tetrahydro-pyrazolo[4,3-c]pyridin-5-yl]-ethanone], it took 975 nM to reach half-maximal inhibition (IC50). The IC50 values of the last two compounds are within 1.5-fold of each other.

`CC(=O)N1CCc2c(c(-c3cccc(C#N)c3)nn2Cc2cc(F)ccc2F)C1` [Example 6ay, 3-[5-Acetyl-1-(2,5-difluoro-benzyl)-4,5,6,7-tetrahydro-1H-pyrazolo[4,3-c]pyridin-3-yl]-benzonitrile] yielded an inhibition at 5 µM of 86%.

As for `CC(=O)N1CCc2c(c(-c3cccc(C)c3)nn2Cc2ccc(F)cc2F)C1` [Example 6az, 1-[1-(2,4-Difluoro-benzyl)-3-m-tolyl-1,4,6,7-tetrahydro-pyrazolo[4,3-c]pyridin-5-yl]-ethanone], the inhibition at 5 µM stood at 89%.

`CC(=O)N1CCc2c(c(-c3cccc(C(F)(F)F)c3)nn2Cc2ccc(Cl)nc2)C1` [Example 6b, 1-[1-(6-Chloro-pyridin-3-ylmethyl)-3-(3-trifluoromethyl-phenyl)-1,4,6,7-tetrahydro-pyrazolo[4,3-c]pyridin-5-yl]-ethanone] gave a 50% inhibitory concentration (IC50) of 172 nM.

Compound `CC(=O)N1CCc2c(c(-c3cccc(Cl)c3)nn2Cc2ccc(F)cc2C)C1` [Example 6ba, 1-[3-(3-Chloro-phenyl)-1-(4-fluoro-2-methyl-benzyl)-1,4,6,7-tetrahydro-pyrazolo[4,3-c]pyridin-5-yl]-ethanone] had an inhibition at 5 µM of 81%.

The term inhibition denotes the change of the read-out against control, counted positive when it falls. A lower inhibition goes with little suppression. In general, IC50 refers to the concentration that gives 50% inhibition. Read a high IC50 as a need for much substance.
